Key:
[1] = system: acute myeloid leukemia cell line, HL60; experiment: Apoptosis induction by Annexin V PI double staining, HL60; assay type: cell-based, human; conditions: vardenafil 5 μM, EGCG 5 μM, 96 hours
Procedure: A propidium iodide (PI) staining solution was prepared by suspending PI (Sigma Corporation) in PBS at a concentration of 50 μg/mL and was used in investigation of the anti-cancer activity of a combination of EGCG and vardenafil by Annexin V PI double staining. The PBS used was prepared by dissolving 8.0 g of NaCl, 0.2 g of KCl, 1.15 g of Na2HPO4, and 0.2 g of KH2PO4 in 1 L of ultrapure water, followed by autoclave sterilization. The Annexin V Binding Buffer used was prepared with 10 mM HEPES, 140 mM NaCl, and 2.5 mM CaCl2 (Wako Pure Chemical Industries, Ltd.) to be pH 7.4, followed by filter sterilization.
Cell lines, U266 and HL60, adjusted to be 5×10^4 cells/mL (U266) and 1×10^4 cells/mL (HL60), respectively, in an RPMI 1640 medium supplemented with 1% FCS were seeded in a 96-well plate. […]
The plate was returned to the incubator immediately after the addition of EGCG, followed by culturing for 96 hours. […] The supernatant was removed, and the cells were suspended in an Annexin V Binding uffer, and the number of the cells was counted with a hemocytometer. […] Subsequently, 400 μL of an Annexin V Binding Buffer was added thereto from above, and the cells were counted with a flow cytometer, FACS Caliber (Becton, Dickinson and Company). After compensation, the Annexin V Alexa Fluor 488 Conjugate was measured at FL 1, and the cells deemed to be positive were determined as apoptotic cells. […]

[2] = system: human acute myeloid leukemia cell line, HL60; experiment: Involvement of 67LR (anti-67LR antibody MLuc5) in cell-killing and cytostatic activity, HL60; assay type: cell-based; conditions: HL60, 96-well; vardenafil 5 μM, EGCG 5 μM; 96 hours; without anti-67LR antibody (isotype control mouse IgM)
Procedure: A trypan blue staining solution was prepared by suspending trypan blue in PBS at a concentration of 1% and was used in investigation of the anti-cancer activity of a combination of EGCG and vardenafil by trypan blue assay. The PBS used was prepared by dissolving 8.0 g of NaCl, 0.2 g of KCl, 1.15 g of Na2HPO4, and 0.2 g of KH2PO4 in 1 L of ultrapure water, followed by autoclave sterilization.
A human multiple myeloma cell line, U266, and a human acute myeloid leukemia cell line, HL60, adjusted to be 5×10^4 cells/mL (U266) and 1×10^4 cells/mL (HL60), respectively, in an RPMI 1640 medium supplemented with 1% FCS were seeded in a 96-well plate (Falcon Co., Ltd.). Vardenafil was added thereto at a final concentration of 5 μM. Immediately after the addition, an anti-67LR monoclonal antibody, MLuc5 (Abcam PLC), was added thereto at a final concentration of 20 μg/mL. In the group of adding an isotype control antibody, mouse IgM (Cosmo Bio Co., Ltd., Tokyo) was added at a final concentration of 20 μg/mL. […]
The plate was returned to the incubator immediately after the addition of EGCG, followed by culturing for 96 hours. […] After 10 minutes, the number of the cells was counted with a hemocytometer. Unstained cells were deemed as viable cells, and the cell viability was determined as a ratio of the number of unstained cells in trypan blue staining to the total number of cells. […]

For (−)-epigallocatechin-3-O-gallate [EGCG], the “apoptosis-inducing activity (apoptotic cell ratio)” value ([1]; Annexin V PI double staining) was “apoptosis was induced”, the “apoptosis-inducing activity under treatment with anti-67LR antibody” value ([1]; anti-67LR antibody MLuc5 20 μg/mL) was “completely cancelled” and the “cell viability (cell-killing activity)” value [2] was “any cytotoxicity was not observed”.

Reference: patent publication US20160000750A1, “COMBINATION OF EGCG OR METHYLATED EGCG AND A PDE INHIBITOR” (KYUSHU UNIVERSITY, NATIONAL UNIVERSITY CORPORATION, priority 2010, published 2016)
